According to US11000033B2, “Ketone or oxime compound, and herbicide” (NISSAN CHEMICAL CORPORATION, priority 2014, dated 2021):

Experiments:
Assay type in all cases: in vivo
[1] = tested on: Echinochloa oryzacola Vasing.; assay: Test Example 1: herbicidal activity, application before weed generation in submerged conditions (symbol A); details: application herbicide amount 320 g/ha
In short: (§1)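 Flooded alluvial soil (4 cm water) was mixed-sown with the three weed species, and 2.5-leaf rice seedlings were transplanted. On sowing day, a water-diluted emulsion at a predetermined rate was applied to the water surface. After 3 weeks in a 25–30 °C greenhouse, effect was scored 0–5.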

Scirpus juncoides = assay: Test Example 1: herbicidal activity, application before weed generation in submerged conditions (symbol B); details: application herbicide amount 320 g/ha
In short: as §1

transplanted rice plant = assay: Test Example 1: effect on crop, application before weed generation in submerged conditions (symbol a); details: application herbicide amount 320 g/ha
In short: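 Alluvial soil pots flooded to 4 cm water, sown with Echinochloa oryzacola, Scirpus juncoides and Monochoria vaginalis, then transplanted with 2.5 leaf stage rice seedlings; pre-emergence application. Greenhouse 25° C. to 30° C.; scored 0–5 by herbicidal ratio 3 weeks after application.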

Cyperus difformis = assay: Test Example 3: herbicidal effect by foliage application, Wagner pot (symbol E); details: application herbicide amount 320 g/ha
In short: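 Steps: fill pot with alluvial soil; add water to 0.1–0.5 cm depth; sow weed and rice seed; grow 14 days at 25–30 °C; spray diluted emulsion over the leaves; rate effect after 3 weeks.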

Alopecurus myosuroides [2] = assay: Test Example 4: herbicidal effect by soil treatment (symbol J)
In short: (§2)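 Seeds were sown in sterilized diluvial soil, covered with about 1.5 cm of soil, and the soil surface was sprayed with a water-diluted emulsion of the compound at a predetermined rate. Plants grew in a greenhouse at 25° C. to 30° C.; effects were scored visually 3 weeks after application.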

Stellaria media = assay: Test Example 4: herbicidal effect by soil treatment (symbol P)
In short: as §2

Galium spurium [3] = assay: Test Example 4: herbicidal effect by soil treatment (symbol Q)
In short: as §2

corn = assay: Test Example 4: effect on crop by soil treatment (symbol c); details: for c: corn, effect on crop grade: application herbicide amount 320 g/ha
In short: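 Grown at 25° C. to 30° C. in a greenhouse, the crops came from seed sown spot-wise in sterilized diluvial soil under roughly 1.5 cm of covering soil.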

soybean = assay: Test Example 4: effect on crop by soil treatment (symbol d); details: for d: soybean, effect on crop grade: application herbicide amount 320 g/ha
In short: (§3)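 The test used sterilized diluvial soil. Seed was set down in spots and overlaid with about 1.5 cm of soil before growth in a greenhouse kept at 25° C. to 30° C.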

rice = assay: Test Example 4: effect on crop by soil treatment (symbol b); details: for b: directly sowed rice plant, effect on crop grade: application herbicide amount 320 g/ha
In short: as §3

wheat = assay: Test Example 4: effect on crop by soil treatment (symbol e); details: for e: wheat, effect on crop grade: application herbicide amount 320 g/ha
In short: as §3

Setaria viridis = assay: Test Example 5: herbicidal effect by foliage application, plastic box (symbol G); details: 320 g/ha, 3 weeks after application
In short: (§4)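 Effect is rated 3 weeks after a foliar spray of water-diluted emulsion concentrate at a predetermined herbicide amount. Plants had grown 14 days in a 25° C. to 30° C. greenhouse from seed in sterilized diluvial soil.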

Alopecurus myosuroides [4] = assay: Test Example 5: herbicidal effect by foliage application, plastic box (symbol J); details: 320 g/ha, 3 weeks after application
In short: as §4

Lolium multiflorum Lam. = assay: Test Example 5: herbicidal effect by foliage application, plastic box (symbol K); details: 320 g/ha, 3 weeks after application
In short: as §4

Galium spurium [5] = assay: Test Example 5: herbicidal effect by foliage application, plastic box (symbol Q); details: 320 g/ha, 3 weeks after application
In short: as §4

[6] = application herbicide amount 320 g/ha

SMILES	Herbicidal effect grade, A: Echinochloa oryzacola Vasing. [1]	Herbicidal effect grade, B: Scirpus juncoides (Scirpus juncoides)	Effect grade on crop, a: transplanted rice plant (transplanted rice plant)	herbicidal effect on E, grade 0-5 (Cyperus difformis)	J: Alopecurus myosuroides, herbicidal effect grade (Alopecurus myosuroides [2]; [6])	P: Stellaria media, herbicidal effect grade (Stellaria media; [6])	Q: Galium spurium, herbicidal effect grade (Galium spurium [3]; [6])	c: corn, effect on crop grade (corn)	d: soybean, effect on crop grade (soybean)	b: directly sowed rice plant, effect on crop grade (rice)	e: wheat, effect on crop grade (wheat)	G: Setaria viridis, herbicidal effect grade (Setaria viridis)	J: Alopecurus myosuroides, herbicidal effect grade (Alopecurus myosuroides [4])	K: Lolium multiflorum Lam., herbicidal effect grade (Lolium multiflorum Lam.)	Q: Galium spurium, herbicidal effect grade (Galium spurium [5])	further results
CCc1cc(-n2cc(Cl)cn2)cc(C)c1C1=C(O)CC(CC(C)=NOC)C1=O (mixture of isomers) [6-005]	5 (Herbicidal ratio of 90% or more (almost completely withered))	5 (Herbicidal ratio of 90% or more (almost completely withered))	5 (Herbicidal ratio of 90% or more (almost completely withered))	3 (Herbicidal ratio of 40% or higher and lower than 70%)	5 (Herbicidal ratio of 90% or more (almost completely withered))	0 (Herbicidal ratio of 5% or lower (almost no effect))	0 (Herbicidal ratio of 5% or lower (almost no effect))	3 (Herbicidal ratio of 40% or higher and lower than 70%)	1 (Herbicidal ratio of 5% or higher and lower than 20%)	5 (Herbicidal ratio of 90% or more (almost completely withered))	4 (Herbicidal ratio of 70% or higher and lower than 90%)	5 (Herbicidal ratio of 90% or more (almost completely withered))	5 (Herbicidal ratio of 90% or more (almost completely withered))	5 (Herbicidal ratio of 90% or more (almost completely withered))	3 (Herbicidal ratio of 40% or higher and lower than 70%)	–
CCc1cc(C#C[Si](C)(C)C)cc(C)c1C1=C(O)CC(CC(C)=NOC)C1=O (mixture of isomers) [6-008]	5 (Herbicidal ratio of 90% or more (almost completely withered))	5 (Herbicidal ratio of 90% or more (almost completely withered))	5 (Herbicidal ratio of 90% or more (almost completely withered))	5 (Herbicidal ratio of 90% or more (almost completely withered))	4 (Herbicidal ratio of 70% or higher and lower than 90%)	0 (Herbicidal ratio of 5% or lower (almost no effect))	0 (Herbicidal ratio of 5% or lower (almost no effect))	3 (Herbicidal ratio of 40% or higher and lower than 70%)	0 (Herbicidal ratio of 5% or lower (almost no effect))	5 (Herbicidal ratio of 90% or more (almost completely withered))	4 (Herbicidal ratio of 70% or higher and lower than 90%)	5 (Herbicidal ratio of 90% or more (almost completely withered))	5 (Herbicidal ratio of 90% or more (almost completely withered))	3 (Herbicidal ratio of 40% or higher and lower than 70%)	0 (Herbicidal ratio of 5% or lower (almost no effect))	–
CON=C(C)CC1CC(O)=C(c2c(C)cc(C#CCO)cc2C)C1=O (mixture of isomers) [6-025]	2 (Herbicidal ratio of 20% or higher and lower than 40%)	0 (Herbicidal ratio of 5% or lower (almost no effect))	3 (Herbicidal ratio of 40% or higher and lower than 70%)	4 (Herbicidal ratio of 70% or higher and lower than 90%)	2 (Herbicidal ratio of 20% or higher and lower than 40%)	0 (Herbicidal ratio of 5% or lower (almost no effect))	0 (Herbicidal ratio of 5% or lower (almost no effect))	0 (Herbicidal ratio of 5% or lower (almost no effect))	0 (Herbicidal ratio of 5% or lower (almost no effect))	5 (Herbicidal ratio of 90% or more (almost completely withered))	0 (Herbicidal ratio of 5% or lower (almost no effect))	5 (Herbicidal ratio of 90% or more (almost completely withered))	5 (Herbicidal ratio of 90% or more (almost completely withered))	5 (Herbicidal ratio of 90% or more (almost completely withered))	0 (Herbicidal ratio of 5% or lower (almost no effect))	–
CON=C(C)CC1CC(O)=C(c2c(C)cc(-c3ccc(Cl)nc3)cc2C)C1=O (mixture of isomers) [6-035]	5 (Herbicidal ratio of 90% or more (almost completely withered))	4 (Herbicidal ratio of 70% or higher and lower than 90%)	5 (Herbicidal ratio of 90% or more (almost completely withered))	5 (Herbicidal ratio of 90% or more (almost completely withered))	4 (Herbicidal ratio of 70% or higher and lower than 90%)	3 (Herbicidal ratio of 40% or higher and lower than 70%)	0 (Herbicidal ratio of 5% or lower (almost no effect))	2 (Herbicidal ratio of 20% or higher and lower than 40%)	0 (Herbicidal ratio of 5% or lower (almost no effect))	5 (Herbicidal ratio of 90% or more (almost completely withered))	0 (Herbicidal ratio of 5% or lower (almost no effect))	5 (Herbicidal ratio of 90% or more (almost completely withered))	5 (Herbicidal ratio of 90% or more (almost completely withered))	5 (Herbicidal ratio of 90% or more (almost completely withered))	4 (Herbicidal ratio of 70% or higher and lower than 90%)	–
CON=C(C)CC1CC(OC(=O)N2CCCCC2)=C(c2c(C)cc(C)cc2C)C1=O (centres unmarked) [1-151]	5 (Herbicidal ratio of 90% or more (almost completely withered))	3 (Herbicidal ratio of 40% or higher and lower than 70%)	4 (Herbicidal ratio of 70% or higher and lower than 90%)	–	–	–	–	–	–	–	–	–	–	–	–	J: Alopecurus myosuroides, herbicidal effect grade (Alopecurus myosuroides [2]; 320 g/ha): 5 (Herbicidal ratio of 90% or more (almost completely withered)); P: Stellaria media, herbicidal effect grade (Stellaria media; 320 g/ha): 0 (Herbicidal ratio of 5% or lower (almost no effect)); Q: Galium spurium, herbicidal effect grade (Galium spurium [3]; 320 g/ha): 0 (Herbicidal ratio of 5% or lower (almost no effect)); c: corn, effect grade on crop (corn; 320 g/ha): 0 (Herbicidal ratio of 5% or lower (almost no effect)); d: soybean, effect grade on crop (soybean; 320 g/ha): 0 (Herbicidal ratio of 5% or lower (almost no effect)); b: directly sowed rice plant, effect grade on crop (rice; 320 g/ha): 1 (Herbicidal ratio of 5% or higher and lower than 20%); e: wheat, effect grade on crop (wheat; 320 g/ha): 0 (Herbicidal ratio of 5% or lower (almost no effect)); G: Setaria viridis, herbicidal effect (criteria 0-5) (Setaria viridis): 5 (Herbicidal ratio of 90% or more (almost completely withered)); J: Alopecurus myosuroides, herbicidal effect (criteria 0-5) (Alopecurus myosuroides [4]): 5 (Herbicidal ratio of 90% or more (almost completely withered)); K: Lolium multiflorum Lam., herbicidal effect (criteria 0-5) (Lolium multiflorum Lam.): 5 (Herbicidal ratio of 90% or more (almost completely withered)); Q: Galium spurium, herbicidal effect (criteria 0-5) (Galium spurium [5]): 0 (Herbicidal ratio of 5% or lower (almost no effect))
